Results taken from article PMC7558026, “Exploring and applying the substrate promiscuity of a C-glycosyltransferase in the chemo-enzymatic synthesis of bioactive C-glycosides” (Nature Communications, 2020).

Key:
Assay type in all cases: biochemical, Aloe barbadensis
AbCGT [1] = target: T1, AbCGT (Aloe vera, UniProt A0A7G9P699); experiment: Glycosyltransferase activity assay, purified AbCGT (wild type) with aglycon acceptors and UDP-Glc; details: aglycon acceptor with UDP-Glc, pH 7.4, 30 °C, up to 12 h; Reaction-1 to -3
AbCGT [2] = target: T1, AbCGT; experiment: Kinetic parameters of AbCGT (wild type); details: acceptor varied, saturating UDP-Glc, pH 7.4, 30 °C
Description: The reactions terminated by the addition of 200 μL of ice-cold methanol. Subsequently, samples were centrifuged at 15,000 × g for 30 min to collect the supernatant, and aliquots were analyzed by HPLC as described above. All experiments were performed in triplicate. The value of Km was calculated with the method of Lineweaver–Burk plot.

AbCGT [3] = experiment: Effects of pH, temperature and divalent metal ions on AbCGT activity (phloretin 17 + UDP-Glc)
Description: To assay for the optimal reaction temperature, the reaction mixtures were incubated at pH 11.0 and different temperatures (15–60 °C). To test the necessity of divalent metal ions for AbCGT, BaCl2, CaCl2, CoCl2, CuCl2, FeCl2, MgCl2, MnCl2, ZnCl2, and EDTA were used individually at a final concentration of 5 mM. […] For quantification, three parallel assays were routinely carried out.

AbCGT [4] = experiment: as above; remark: listed apart in the source
[5] = pH 5.0, citric acid-sodium citrate buffer, reaction-1
[6] = pH 5.0, citric acid-sodium citrate buffer, reaction-2
[7] = pH 5.0, citric acid-sodium citrate buffer, reaction-3
[8] = pH 6.0, Na2HPO4-NaH2PO4 buffer, reaction-1
[9] = pH 6.0, Na2HPO4-NaH2PO4 buffer, reaction-2
[10] = pH 6.0, Na2HPO4-NaH2PO4 buffer, reaction-3
[11] = pH 6.0, citric acid-sodium citrate buffer, reaction-1
[12] = pH 6.0, citric acid-sodium citrate buffer, reaction-2
[13] = pH 6.0, citric acid-sodium citrate buffer, reaction-3
[14] = pH 7.0, Na2HPO4-NaH2PO4 buffer, reaction-1
[15] = pH 7.0, Na2HPO4-NaH2PO4 buffer, reaction-2
[16] = pH 7.0, Na2HPO4-NaH2PO4 buffer, reaction-3
[17] = pH 7.0, Tris-HCl buffer, reaction-1
[18] = pH 7.0, Tris-HCl buffer, reaction-2
[19] = pH 7.0, Tris-HCl buffer, reaction-3
[20] = pH 8.0, Tris-HCl buffer, reaction-1
[21] = pH 8.0, Tris-HCl buffer, reaction-2
[22] = pH 8.0, Tris-HCl buffer, reaction-3
[23] = pH 9.0, Na2CO3-NaHCO3 buffer, reaction-1
[24] = pH 9.0, Na2CO3-NaHCO3 buffer, reaction-2
[25] = pH 9.0, Na2CO3-NaHCO3 buffer, reaction-3
[26] = pH 9.0, Tris-HCl buffer, reaction-1
[27] = pH 9.0, Tris-HCl buffer, reaction-2
[28] = pH 9.0, Tris-HCl buffer, reaction-3
[29] = pH 10.0, Na2CO3-NaHCO3 buffer, reaction-1
[30] = pH 10.0, Na2CO3-NaHCO3 buffer, reaction-2
[31] = pH 10.0, Na2CO3-NaHCO3 buffer, reaction-3
[32] = pH 11.0, Na2CO3-NaHCO3 buffer, reaction-1
[33] = pH 11.0, Na2CO3-NaHCO3 buffer, reaction-2
[34] = pH 11.0, Na2CO3-NaHCO3 buffer, reaction-3
[35] = pH 12.0, Na2CO3-NaHCO3 buffer, reaction-1
[36] = pH 12.0, Na2CO3-NaHCO3 buffer, reaction-2
[37] = pH 12.0, Na2CO3-NaHCO3 buffer, reaction-3

T1 sequence (A0A7G9P699 entry or part of it): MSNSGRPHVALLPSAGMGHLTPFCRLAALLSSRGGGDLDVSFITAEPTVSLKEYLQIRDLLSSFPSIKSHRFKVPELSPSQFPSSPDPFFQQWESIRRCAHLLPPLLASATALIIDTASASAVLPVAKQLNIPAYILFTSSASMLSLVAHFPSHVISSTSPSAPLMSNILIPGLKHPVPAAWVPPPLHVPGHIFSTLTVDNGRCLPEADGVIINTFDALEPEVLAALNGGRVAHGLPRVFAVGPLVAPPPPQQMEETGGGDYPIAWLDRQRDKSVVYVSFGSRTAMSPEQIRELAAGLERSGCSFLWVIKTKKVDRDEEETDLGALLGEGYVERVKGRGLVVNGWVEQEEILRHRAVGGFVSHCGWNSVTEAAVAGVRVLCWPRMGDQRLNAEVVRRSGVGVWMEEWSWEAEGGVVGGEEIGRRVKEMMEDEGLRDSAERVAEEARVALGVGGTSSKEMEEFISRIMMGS

O=C(CCc1ccc(O)cc1)c1c(O)cc(O)cc1O [Compound 17, phloretin]
conversion rates, O,N,S-glycosylation (AbCGT [1]): 0% | conversion rates, di-C-glycosylation (AbCGT [1]): 100% | conversion rates, mono-C-glycosylation (AbCGT [1]): 0% | Kcat (AbCGT [2]): 2 s⁻¹ | conversion rates of Phloretin (AbCGT [3]; Temperature 15, reaction-1): 11 | relative activity (AbCGT [3]; Temperature 15, reaction-1): 11.0 | conversion rates of Phloretin (AbCGT [3]; Temperature 15, reaction-2): 10.9 | relative activity (AbCGT [3]; Temperature 15, reaction-2): 10.9 | conversion rates of Phloretin (AbCGT [3]; Temperature 15, reaction-3): 12.9 | relative activity (AbCGT [3]; Temperature 15, reaction-3): 12.9 | conversion rates of Phloretin (AbCGT [3]; Temperature 25, reaction-1): 18.8 | relative activity (AbCGT [3]; Temperature 25, reaction-1): 18.8 | conversion rates of Phloretin (AbCGT [3]; Temperature 25, reaction-2): 21.4 | relative activity (AbCGT [3]; Temperature 25, reaction-2): 21.4 | conversion rates of Phloretin (AbCGT [3]; Temperature 25, reaction-3): 24.7 | relative activity (AbCGT [3]; Temperature 25, reaction-3): 24.7 | conversion rates of Phloretin (AbCGT [3]; Temperature 30, reaction-1): 39.8 | relative activity (AbCGT [3]; Temperature 30, reaction-1): 39.9 | conversion rates of Phloretin (AbCGT [3]; Temperature 30, reaction-2): 36.9 | relative activity (AbCGT [3]; Temperature 30, reaction-2): 37.0 | conversion rates of Phloretin (AbCGT [3]; Temperature 30, reaction-3): 38.5 | relative activity (AbCGT [3]; Temperature 30, reaction-3): 38.6 | conversion rates of Phloretin (AbCGT [3]; Temperature 35, reaction-1): 64.8 | relative activity (AbCGT [3]; Temperature 35, reaction-1): 64.9 | conversion rates of Phloretin (AbCGT [3]; Temperature 35, reaction-2): 57.8 | relative activity (AbCGT [3]; Temperature 35, reaction-2): 57.9 | conversion rates of Phloretin (AbCGT [3]; Temperature 35, reaction-3): 60.7 | relative activity (AbCGT [3]; Temperature 35, reaction-3): 60.8 | conversion rates of Phloretin (AbCGT [3]; Temperature 40, reaction-1): 78.1 | relative activity (AbCGT [3]; Temperature 40, reaction-1): 78.3 | conversion rates of Phloretin (AbCGT [3]; Temperature 40, reaction-2): 81 | relative activity (AbCGT [3]; Temperature 40, reaction-2): 81.2 | conversion rates of Phloretin (AbCGT [3]; Temperature 40, reaction-3): 73.2 | relative activity (AbCGT [3]; Temperature 40, reaction-3): 73.3 | conversion rates of Phloretin (AbCGT [3]; Temperature 45, reaction-1): 99.4 | relative activity (AbCGT [3]; Temperature 45, reaction-1): 99.6 | conversion rates of Phloretin (AbCGT [3]; Temperature 45, reaction-2): 100 | relative activity (AbCGT [3]; Temperature 45, reaction-2): 100.2 | conversion rates of Phloretin (AbCGT [3]; Temperature 45, reaction-3): 100 | relative activity (AbCGT [3]; Temperature 45, reaction-3): 100.2 | conversion rates of Phloretin (AbCGT [3]; Temperature 50, reaction-1): 97.7 | relative activity (AbCGT [3]; Temperature 50, reaction-1): 97.9 | conversion rates of Phloretin (AbCGT [3]; Temperature 50, reaction-2): 98 | relative activity (AbCGT [3]; Temperature 50, reaction-2): 98.2 | conversion rates of Phloretin (AbCGT [3]; Temperature 50, reaction-3): 99.1 | relative activity (AbCGT [3]; Temperature 50, reaction-3): 99.3 | conversion rates of Phloretin (AbCGT [3]; Temperature 55, reaction-1): 96.5 | relative activity (AbCGT [3]; Temperature 55, reaction-1): 96.7 | conversion rates of Phloretin (AbCGT [3]; Temperature 55, reaction-2): 95.7 | relative activity (AbCGT [3]; Temperature 55, reaction-2): 95.9 | conversion rates of Phloretin (AbCGT [3]; Temperature 55, reaction-3): 93.3 | relative activity (AbCGT [3]; Temperature 55, reaction-3): 93.5 | conversion rates of Phloretin (AbCGT [3]; Temperature 60, reaction-1): 75.4 | relative activity (AbCGT [3]; Temperature 60, reaction-1): 75.6 | conversion rates of Phloretin (AbCGT [3]; Temperature 60, reaction-2): 85.7 | relative activity (AbCGT [3]; Temperature 60, reaction-2): 85.9 | conversion rates of Phloretin (AbCGT [3]; Temperature 60, reaction-3): 80 | relative activity (AbCGT [3]; Temperature 60, reaction-3): 80.2 | conversion rates of Phloretin (AbCGT [3]; [5]): 0.2 | conversion rates of Phloretin (AbCGT [3]; [6]): 0.1 | relative activity (AbCGT [3]; [6]): 0.1 | conversion rates of Phloretin (AbCGT [3]; [7]): 0.2 | relative activity (AbCGT [3]; [7]): 0.2 | conversion rates of Phloretin (AbCGT [3]; [8]): 23.7 | relative activity (AbCGT [3]; [8]): 23.8 | conversion rates of Phloretin (AbCGT [3]; [9]): 25.1 | conversion rates of Phloretin (AbCGT [3]; [10]): 25.4 | relative activity (AbCGT [3]; [10]): 25.5 | conversion rates of Phloretin (AbCGT [3]; [11]): 11.7 | relative activity (AbCGT [3]; [11]): 11.8 | conversion rates of Phloretin (AbCGT [3]; [12]): 15.2 | relative activity (AbCGT [3]; [12]): 15.3 | conversion rates of Phloretin (AbCGT [3]; [13]): 13 | relative activity (AbCGT [3]; [13]): 13.1 | conversion rates of Phloretin (AbCGT [3]; [14]): 30.8 | relative activity (AbCGT [3]; [14]): 30.9 | conversion rates of Phloretin (AbCGT [3]; [15]): 28 | relative activity (AbCGT [3]; [15]): 28.1 | conversion rates of Phloretin (AbCGT [3]; [16]): 30.7 | relative activity (AbCGT [3]; [16]): 30.8 | conversion rates of Phloretin (AbCGT [3]; [17]): 34.2 | relative activity (AbCGT [3]; [17]): 34.4 | conversion rates of Phloretin (AbCGT [3]; [18]): 33.6 | relative activity (AbCGT [3]; [18]): 33.8 | conversion rates of Phloretin (AbCGT [3]; [19]): 34.8 | relative activity (AbCGT [3]; [19]): 35.0 | conversion rates of Phloretin (AbCGT [3]; [20]): 35 | relative activity (AbCGT [3]; [20]): 35.2 | conversion rates of Phloretin (AbCGT [3]; [21]): 36.1 | relative activity (AbCGT [3]; [21]): 36.3 | conversion rates of Phloretin (AbCGT [3]; [22]): 35.4 | relative activity (AbCGT [3]; [22]): 35.6 | conversion rates of Phloretin (AbCGT [3]; [23]): 53 | relative activity (AbCGT [3]; [23]): 53.2 | conversion rates of Phloretin (AbCGT [3]; [24]): 52.2 | relative activity (AbCGT [3]; [24]): 52.4 | conversion rates of Phloretin (AbCGT [3]; [25]): 53.9 | relative activity (AbCGT [3]; [25]): 54.2 | conversion rates of Phloretin (AbCGT [3]; [26]): 45.9 | relative activity (AbCGT [3]; [26]): 46.1 | conversion rates of Phloretin (AbCGT [3]; [27]): 46.5 | relative activity (AbCGT [3]; [27]): 46.7 | conversion rates of Phloretin (AbCGT [3]; [28]): 53 | relative activity (AbCGT [3]; [28]): 53.2 | conversion rates of Phloretin (AbCGT [3]; [29]): 89.2 | relative activity (AbCGT [3]; [29]): 89.6 | conversion rates of Phloretin (AbCGT [3]; [30]): 93 | relative activity (AbCGT [3]; [30]): 93.4 | conversion rates of Phloretin (AbCGT [3]; [31]): 92.7 | relative activity (AbCGT [3]; [31]): 93.1 | conversion rates of Phloretin (AbCGT [3]; [32]): 99.2 | relative activity (AbCGT [3]; [32]): 99.7 | conversion rates of Phloretin (AbCGT [3]; [33]): 100 | relative activity (AbCGT [3]; [33]): 100.5 | conversion rates of Phloretin (AbCGT [3]; [34]): 99.4 | relative activity (AbCGT [3]; [34]): 99.9 | conversion rates of Phloretin (AbCGT [3]; [35]): 0 | relative activity (AbCGT [3]; [35]): 0.0 | conversion rates of Phloretin (AbCGT [3]; [36]): 0 | relative activity (AbCGT [3]; [36]): 0.0 | conversion rates of Phloretin (AbCGT [3]; [37]): 0 | relative activity (AbCGT [3]; [37]): 0.0 | relative activity (AbCGT [4]; [5]): 0.2 | relative activity (AbCGT [4]; [9]): 25.2
